From patent US8124793B2, “Derivatives of ethylene methanedisulfonate as cancer chemotherapeutic agents” (priority 2007, dated 2012)

Legend:
Format in all cases: cell-based
[1] = system: CCRF-CEM; assay: NCI screen, growth of human tumor cells: Leukemia CCRF-CEM; conditions: CCRF-CEM (Leukemia), 10^−4 molar
How it was run: (§1)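 The NCI screen tests each compound on human cancer cell lines and reports percent growth. Concentrations are given in molar units; the number of data points per compound is sixty at minimum.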

[2] = system: HL-60 (TB); assay: NCI screen, growth of human tumor cells: Leukemia HL-60 (TB); conditions: HL-60 (TB) (Leukemia), 10^−4 molar
Experimental: (§2) In the NCI screening process, each compound was tested and described by a minimum of 60 data points. The test data include, but are not limited to the type of cancer, the molar concentration used in the screen, and the percent growth of the cancer. In some cases, NMR and elemental analysis were used for structural assignment.

[3] = system: MOLT-4; assay: NCI screen, growth of human tumor cells: Leukemia MOLT-4; conditions: MOLT-4 (Leukemia), 10^−4 molar
How it was run: as §1

[4] = system: RPMI-8226; assay: NCI screen, growth of human tumor cells: Leukemia RPMI-8226; conditions: RPMI-8226 (Leukemia), 10^−4 molar
How it was run: as §1

[5] = system: SR; assay: NCI screen, growth of human tumor cells: Leukemia SR; conditions: SR (Leukemia), 10^−4 molar
How it was run: as §1

[6] = system: HOP-62; assay: NCI screen, growth of human tumor cells: Non-Small Cell Lung HOP-62
How it was run: as §1

[7] = system: NCI-H522; assay: NCI screen, growth of human tumor cells: Non-Small Cell Lung NCI-H522; conditions: NCI-H522 (Non-Small Cell Lung), 10^−4 molar
How it was run: as §1

[8] = system: NCI-H23; assay: NCI screen, growth of human tumor cells: Non-Small Cell Lung NCI-H23; conditions: NCI-H23 (Non-Small Cell Lung), 10^−4 molar
How it was run: as §1

[9] = system: HCT-116; assay: NCI screen, growth of human tumor cells: Colon Cancer HCT-116; conditions: HCT-116 (Colon Cancer), 10^−4 molar
How it was run: as §1

[10] = system: HCT-15; assay: NCI screen, growth of human tumor cells: Colon Cancer HCT-15; conditions: HCT-15 (Colon Cancer), 10^−4 molar
How it was run: as §1

[11] = system: KM12; assay: NCI screen, growth of human tumor cells: Colon Cancer KM12; conditions: KM12 (Colon Cancer), 10^−4 molar
How it was run: as §1

[12] = system: SF-268; assay: NCI screen, growth of human tumor cells: CNS Cancer SF-268
How it was run: as §1

[13] = system: SF-295; assay: NCI screen, growth of human tumor cells: CNS Cancer SF-295
How it was run: as §1

[14] = system: SF-539; assay: NCI screen, growth of human tumor cells: CNS Cancer SF-539
How it was run: as §1

[15] = system: SNB-75; assay: NCI screen, growth of human tumor cells: CNS Cancer SNB-75; conditions: SNB-75 (CNS Cancer), 10^−4 molar
How it was run: as §1

[16] = system: U-251; assay: NCI screen, growth of human tumor cells: CNS Cancer U-251; conditions: U-251 (CNS Cancer), 10^−4 molar
How it was run: as §1

[17] = system: LOXIMVI; assay: NCI screen, growth of human tumor cells: Melanoma LOXIMVI; conditions: LOXIMVI (Melanoma), 10^−4 molar
How it was run: as §1

[18] = system: SK-MEL-2; assay: NCI screen, growth of human tumor cells: Melanoma SK-MEL-2; conditions: SK-MEL-2 (Melanoma), 10^−4 molar
How it was run: as §1

[19] = system: UACC-62; assay: NCI screen, growth of human tumor cells: Melanoma UACC-62
How it was run: as §1

[20] = system: SK-OV-3; assay: NCI screen, growth of human tumor cells: Ovarian Cancer SK-OV-3; conditions: SK-OV-3 (Ovarian Cancer), 10^−4 molar
Experimental: as §2

[21] = system: OVCAR-3; assay: NCI screen, growth of human tumor cells: Ovarian Cancer OVCAR-3; conditions: OVCAR-3 (Ovarian Cancer), 10^−4 molar
How it was run: as §1

[22] = system: OVCAR-4; assay: NCI screen, growth of human tumor cells: Ovarian Cancer OVCAR-4; conditions: OVCAR-4 (Ovarian Cancer), 10^−4 molar
How it was run: as §1

[23] = system: 786-0; assay: NCI screen, growth of human tumor cells: Renal Cancer 786-0; conditions: 786-0 (Renal Cancer), 10^−4 molar
How it was run: as §1

[24] = system: ACHN; assay: NCI screen, growth of human tumor cells: Renal Cancer ACHN; conditions: ACHN (Renal Cancer), 10^−4 molar
How it was run: as §1

[25] = system: RXF-393; assay: NCI screen, growth of human tumor cells: Renal Cancer RXF-393; conditions: RXF-393 (Renal Cancer), 10^−4 molar
How it was run: as §1

[26] = system: SN12C; assay: NCI screen, growth of human tumor cells: Renal Cancer SN12C; conditions: SN12C (Renal Cancer), 10^−4 molar
How it was run: as §1

[27] = system: CAKI-1; assay: NCI screen, growth of human tumor cells: Renal Cancer CAKI-1; conditions: CAKI-1 (Renal Cancer), 10^−4 molar
How it was run: as §1

[28] = system: MCF 7; assay: NCI screen, growth of human tumor cells: Breast Cancer MCF 7; conditions: MCF 7 (Breast Cancer), 10^−4 molar
How it was run: as §1

[29] = system: MCF7/ADR-RES; assay: NCI screen, growth of human tumor cells: Breast Cancer MCF7/ADR-RES; conditions: MCF7/ADR-RES
How it was run: as §1

[30] = system: BT-549; assay: NCI screen, growth of human tumor cells: Breast Cancer BT-549
How it was run: as §1

[31] = system: HS 578T; assay: NCI screen, growth of human tumor cells: Breast Cancer HS 578T; conditions: HS 578T (Breast Cancer), 10^−4 molar
How it was run: as §1

[32] = system: T-47D; assay: NCI screen, growth of human tumor cells: Breast Cancer T-47D; conditions: T-47D (Breast Cancer), 10^−4 molar
Experimental: as §2

[33] = system: human cancer cells; assay: NCI screen summary over the cancers tested (negative growth of human cancer cells); conditions: 10^−4 M conc.; cancers with negative growth / cancers tested
Experimental: as §2
The derivatives in the tables are grouped using the same category as in the tables 1-6.

SMILES: N#CCCC1(CCC#N)S(=O)(=O)OCCOS1(=O)=O [NSC 665941]
- percent of growth of human tumor cells [1]: 5%
- percent of growth of human tumor cells [2]: −17%
- percent of growth of human tumor cells [3]: 6%
- percent of growth of human tumor cells [4]: 24%
- percent of growth of human tumor cells [5]: 10%
- % Growth ([6]; HOP-62, 10^−4 molar): 16%
- % Growth ([6]; HOP-62, 10^−5 molar): 46%
- % Growth ([6]; HOP-62, 10^−6 molar): 48%
- % Growth ([6]; HOP-62, 10^−7 molar): 25%
- % Growth ([6]; HOP-62, 10^−8 molar): 25%
- percent of growth of human tumor cells [7]: 18%
- percent of growth of human tumor cells [8]: 25%
- percent of growth of human tumor cells [9]: 26%
- percent of growth of human tumor cells [10]: 27%
- percent of growth of human tumor cells [11]: 27%
- % Growth ([12]; SF-268, 10^−4 molar): 24%
- % Growth ([12]; SF-268, 10^−5 molar): 48%
- % Growth ([13]; SF-295, 10^−4 molar): 7%
- % Growth ([13]; SF-295, 10^−5 molar): 47%
- % Growth ([14]; SF-539, 10^−4 molar): −48%
- % Growth ([14]; SF-539, 10^−5 molar): 47%
- percent of growth of human tumor cells [15]: 28%
- percent of growth of human tumor cells [16]: 20%
- percent of growth of human tumor cells [17]: 5%
- percent of growth of human tumor cells [18]: 26%
- % Growth ([19]; UACC-62, 10^−4 molar): 9%
- % Growth ([19]; UACC-62, 10^−5 molar): 49%
- percent of growth of human tumor cells [20]: 28%
- percent of growth of human tumor cells [21]: 12%
- percent of growth of human tumor cells [22]: 4%
- percent of growth of human tumor cells [23]: 6%
- percent of growth of human tumor cells [24]: 13%
- percent of growth of human tumor cells [25]: 23%
- percent of growth of human tumor cells [26]: 15%
- percent of growth of human tumor cells [27]: 28%
- percent of growth of human tumor cells [28]: 18%
- % Growth ([29]; 10^−4 molar): 1%
- % Growth ([29]; 10^−5 molar): 63%
- % Growth ([29]; 10^−6 molar): 69%
- % Growth ([29]; 10^−7 molar): 68%
- % Growth ([29]; 10^−8 molar): 56%
- percent of growth of human tumor cells ([30]; BT-549 (Breast Cancer), 10^−4 molar): 18%
- % Growth ([30]; BT-549, 10^−4 molar): 18%
- % Growth ([30]; BT-549, 10^−5 molar): 33%
- percent of growth of human tumor cells [31]: −8%
- percent of growth of human tumor cells [32]: 25%
- Percentage of cancers showing negative growth cancers tested [33]: 10^−4 M conc. = 3/32 = 9%
